Assay [1] concerns RKO (RKOp27) human colon adenocarcinoma cells. In words: Alamar Blue cell viability assay, anti-proliferative/cytotoxic activity on proliferating (uninduced) RKO p27 cells. Type of assay: cell-based. To be noted: RKOp27, 72 h, proliferating cells without inducer Ponasterone A. The procedure: The anti-proliferative/cytotoxic activity of the compounds described herein, can be tested on subclones of RKO (RKOp27) human colon adenocarcinoma cells (Schmidt et al., Oncogene 19, 2423-2429; 2000) using the Alamar Blue cell viability assay (described in O'Brien et al. Eur J Biochem 267, 5421-5426, 2000). The compounds are dissolved as 20 mM solutions in dimethylsulfoxide (DMSO) and subsequently diluted in semi-logarithmic steps. DMSO dilutions are further diluted 1:100 into Dulbecco's modified Eagle's medium (DMEM) containing 10% fetal calf serum to a final concentration twice as much as the final concentration in the test. RKO subclones are seeded into 96 well flat bottom plates at a density of 4000 cells per well in a volume of 50 μl per well. 24 hours after seeding the 50 μl each of the compound dilutions in DMEM medium are added into each well of the 96 Well plate. Each compound dilution is tested as quadruplicates. Wells containing untreated control cells are filled with 50 μl DMEM medium containing 1% DMSO. The cells are then incubated with the substances for 72 hours at 37° C. in a humidified atmosphere containing 5% carbon dioxide. To determine the viability of the cells, 10 μl of an Alamar Blue solution (Biosource) are added and the fluorescence is measured at an extinction of 544 nm and an emission of 590 nm. For the calculation of the cell viability the emission value from untreated cells is set as 100% viability and the emission rates of treated cells are set in relation to the values of untreated cells. Viabilities are expressed as % values.
The corresponding IC50 values of the compounds for anti-proliferative/cytotoxic activity are determined from the concentration-effect curves.
Representative IC50 values for anti-proliferation/cytotoxicity determined in the mentioned assay follow from the following table A, in which the numbers of the compound correspond to the numbers of the examples.
For orientation: The colour change of resazurin is a common sign of viable cells or microbes.

The subject of assay [2] is RKOp27 colon adenocarcinoma cells arrested by expression of ectopic p27Kip1. In words: Alamar Blue cell viability assay on RKO p27 cells arrested by Ponasterone A induced p27Kip1 (cell cycle specific mode of action). Type of assay: cell-based. To be noted: Homo sapiens, 72 hours, cells arrested by p27Kip1 induced with 10 μM Ponasterone A. The procedure: To determine the cell cycle specific mode of action, subclones of RKO colon adenocarcinoma cells (RKOp27 or RKOp21 as described by Schmidt et al. in Oncogene 19, 2423-2429; 2000) are seeded into 96 well flat bottom plates at a density of 16000 cells per well in a volume of 50 μl per well in DMEM growth medium with 10% FCS containing 10 μM Ponasterone A. 24 hours after seeding the 50 μl each of the compound dilutions in DMEM medium are added into each well of the 96 Well plate. Each compound dilution is tested as quadruplicates. Wells containing untreated control cells are filled with 50 μl DMEM medium containing 1% DMSO. The cells are then incubated with the substances for 72 hours at 37° C. in a humidified atmosphere containing 5% carbon dioxide. To determine the viability of the cells, 10 μl of an Alamar Blue solution (Biosource) are added and the fluorescence was measured at an extinction of 544 nm and an emission of 590 nm. For the calculation of the cell viability the emission value from untreated cells is set as 100% viability and the emission rates of treated cells are set in relation to the values of untreated cells. Viabilities are expressed as % values. Viability is compared of proliferating cells grown in the absence of the inducer Ponasterone A, versus viability of cells arrested by the expression of ectopic p27Kip1 induced by Ponasterone A.

A word on the IC50: it is the concentration at which inhibition is half-maximal. Low readings indicate inhibition by little substance, high ones a need for much substance. `CCOC(=O)N1CCc2c(sc(NC(=O)CCc3ccccc3OC)c2C#N)C1` [Example 3, 3-Cyano-2-[3-(2-methoxy-phenyl)-propanoylamino]-4,7-dihydro-5H-thieno[2,3-c]pyridine-6-carboxylic acid ethyl ester]: the values for the IC50 in assay [1] and in assay [2] were 300 to 2000 nM and more than 100000 nM, respectively.
Turning to `COc1cccc(CCC(=O)Nc2sc3c(c2C#N)CCN(C(=O)OCCc2cccnc2)C3)c1` [Example 63, 3-Cyano-2-[3-(3-methoxy-phenyl)-propanoylamino]-4,7-dihydro-5H-thieno[2,3-c]pyridine-6-carboxylic acid 2-pyridin-3-yl-ethyl ester], the values for the half-maximal inhibitory concentration (IC50) in assay [1] and in assay [2] were not above 300 nM and not below 40000 nM, respectively.
Taken in the same sequence, the figures for `COc1cccc(CCC(=O)Nc2sc3c(c2C#N)CCN(C(=O)OCCc2ccccn2)C3)c1` [Example 38, 3-Cyano-2-[3-(3-methoxy-phenyl)-propanoylamino]-4,7-dihydro-5H-thieno[2,3-c]pyridine-6-carboxylic acid 2-pyridin-2-yl-ethyl ester] were 300 to 2000 nM and more than 100000 nM.
The matching figures for `CCOC(=O)N1CCc2c(sc(NC(=O)CCc3cccc(OCC)c3OCC)c2C#N)C1` [Example 16, 3-Cyano-2-[3-(2,3-diethoxy-phenyl)-propanoylamino]-4,7-dihydro-5H-thieno[2,3-c]pyridine-6-carboxylic acid ethyl ester]: 300 to 2000 nM and more than 100000 nM.
As for `CCOC(=O)N1CCc2c(sc(NC(=O)CCc3ccccc3OC(F)F)c2C#N)C1` [Example 12, 3-Cyano-2-{3-[2-(1,1-difluoro-methoxy)-phenyl]-propanoylamino}-4,7-dihydro-5H-thieno[2,3-c]pyridine-6-carboxylic acid ethyl ester], the half-inhibitory concentration (IC50) in assay [1] is not above 300 nM; in assay [2], more than 100000 nM.
`COc1ccc(C)cc1CCC(=O)Nc1sc2c(c1C#N)CCN(C(=O)OCCn1ccnc1C)C2` [Example 131, 3-Cyano-2-[3-(2-methoxy-5-methyl-phenyl)-propanoylamino]-4,7-dihydro-5H-thieno[2,3-c]pyridine-6-carboxylic acid 2-(2-methyl-imidazol-1-yl)-ethyl ester]: the concentration for half-maximal inhibition (IC50) in assay [1] was not above 300 nM; in assay [2], not below 40000 nM.
As to `COc1cccc(CCC(=O)Nc2sc3c(c2C#N)CCN(C(=O)OCc2nccn2C)C3)c1` [Example 119, 3-Cyano-2-[3-(3-methoxy-phenyl)-propanoylamino]-4,7-dihydro-5H-thieno[2,3-c]pyridine-6-carboxylic acid 1-methyl-1H-imidazol-2-ylmethyl ester], the results for the IC50 in assay [1] and in assay [2] were not above 300 nM and more than 100000 nM, respectively.
On to `CCOC(=O)N1CCc2c(sc(NC(=O)CCc3ccc(OC)cc3)c2C#N)C1` [Example 1, 3-Cyano-2-[3-(4-methoxy-phenyl)-propanoylamino]-4,7-dihydro-5H-thieno[2,3-c]pyridine-6-carboxylic acid ethyl ester], for which the 50% inhibitory concentration (IC50) in assay [1] is not above 300 nM; in assay [2] it was more than 100000 nM.
Consider `COc1ccccc1CCC(=O)Nc1sc2c(c1C#N)CCN(C(=O)OCC(O)CO)C2` (stereo not shown) [Example 32, 3-Cyano-2-[3-(2-methoxy-phenyl)-propanoylamino]-4,7-dihydro-5H-thieno[2,3-c]pyridine-6-carboxylic acid 2,3-dihydroxy-propyl ester], for which the values for the half-inhibitory concentration (IC50) in assay [1] and in assay [2] were not above 300 nM and more than 100000 nM, respectively.
`COc1ccc(C)cc1CCC(=O)Nc1sc2c(c1C#N)CCN(C(=O)OCCc1ccncc1)C2` [Example 106, 3-Cyano-2-[3-(2-methoxy-5-methyl-phenyl)-propanoylamino]-4,7-dihydro-5H-thieno[2,3-c]pyridine-6-carboxylic acid 2-pyridin-4-yl-ethyl ester]: the half-maximal inhibitory concentration (IC50) in assay [1] is not above 300 nM; in assay [2], more than 100000 nM.
`COc1ccccc1CCC(=O)Nc1sc2c(c1C#N)CCN(C(=O)OCCOCc1ccccc1)C2` [Example 24, 3-Cyano-2-[3-(2-methoxy-phenyl)-propanoylamino]-4,7-dihydro-5H-thieno[2,3-c]pyridine-6-carboxylic acid 2-benzyloxy-ethyl ester]: the IC50 in assay [1] was 300 to 2000 nM; in assay [2] it was more than 100000 nM.
Taken in the same sequence, the figures for `CCOC(=O)N1CCc2c(sc(NC(=O)CCc3cc(Br)cc(OC)c3OC)c2C#N)C1` [Example 14, 2-[3-(5-Bromo-2,3-dimethoxy-phenyl)-propanoylamino]-3-cyano-4,7-dihydro-5H-thieno[2,3-c]pyridine-6-carboxylic acid ethyl ester] were not above 300 nM and more than 100000 nM.
In the case of `COc1ccccc1CCC(=O)Nc1sc2c(c1C#N)CCN(C(=O)OCCc1ccccn1)C2` [Example 25, 3-Cyano-2-[3-(2-methoxy-phenyl)-propanoylamino]-4,7-dihydro-5H-thieno[2,3-c]pyridine-6-carboxylic acid 2-pyridin-2-yl-ethyl ester], the values for the half-maximal inhibitory concentration (IC50) in assay [1] and in assay [2] were not above 300 nM and more than 100000 nM, respectively.
As for `COc1cccc(CCC(=O)Nc2sc3c(c2C#N)CCN(C(=O)OC(C)(C)C)C3)c1` [Example 11, 3-Cyano-2-[3-(3-methoxy-phenyl)-propanoylamino]-4,7-dihydro-5H-thieno[2,3-c]pyridine-6-carboxylic acid tert-butyl ester], the IC50 was not above 300 nM in assay [1] and more than 100000 nM in assay [2].
In the case of `CCOC(=O)N1CCc2c(sc(NC(=O)CCc3cccc(OCC)c3)c2C#N)C1` [Example 8, 3-Cyano-2-[3-(3-ethoxy-phenyl)-propanoylamino]-4,7-dihydro-5H-thieno[2,3-c]pyridine-6-carboxylic acid ethyl ester], the 50% inhibitory concentration (IC50) in assay [1] was 300 to 2000 nM; in assay [2], more than 100000 nM.
As to `COc1ccc(OC)c(CCC(=O)Nc2sc3c(c2C#N)CCN(C(=O)OCCc2ccccn2)C3)c1` [Example 55, 3-Cyano-2-[3-(2,5-dimethoxy-phenyl)-propanoylamino]-4,7-dihydro-5H-thieno[2,3-c]pyridine-6-carboxylic acid 2-pyridin-2-yl-ethyl ester], the IC50 in assay [1] is 300 to 2000 nM; in assay [2], more than 100000 nM.
As to `COc1ccccc1CCC(=O)Nc1sc2c(c1C#N)CCN(C(=O)OCCO)C2` [Example 34, 3-Cyano-2-[3-(2-methoxy-phenyl)-propanoylamino]-4,7-dihydro-5H-thieno[2,3-c]pyridine-6-carboxylic acid 2-hydroxy-ethyl ester], the 50% inhibitory concentration (IC50) in assay [1] was not above 300 nM; in assay [2] it was more than 100000 nM.
Take `CCOC(=O)N1CCc2c(sc(NC(=O)CCc3cccc(OC)c3)c2C#N)C1` [Example 2, 3-Cyano-2-[3-(3-methoxy-phenyl)-propanoylamino]-4,7-dihydro-5H-thieno[2,3-c]pyridine-6-carboxylic acid ethyl ester]: the IC50 is not above 300 nM in assay [1] and more than 100000 nM in assay [2].
On to `COc1ccccc1CCC(=O)Nc1sc2c(c1C#N)CCN(C(=O)OCCn1ccnc1)C2` [Example 73, 3-Cyano-2-[3-(2-methoxy-phenyl)-propanoylamino]-4,7-dihydro-5H-thieno[2,3-c]pyridine-6-carboxylic acid 2-imidazol-1-yl-ethyl ester], for which the IC50 is not above 300 nM in assay [1] and more than 100000 nM in assay [2].
Take `COc1ccccc1CCC(=O)Nc1sc2c(c1C#N)CCN(C(=O)OC(C)(C)C)C2` [Example 10, 3-Cyano-2-[3-(2-methoxy-phenyl)-propanoylamino]-4,7-dihydro-5H-thieno[2,3-c]pyridine-6-carboxylic acid tert-butyl ester]: the 50% inhibitory concentration (IC50) in assay [1] was not above 300 nM; in assay [2] it was more than 100000 nM.

Source of the values: US7741488B2, “Tetrahydropyridothiophenes as antiproliferative agents for the treatment of cancer” (4SC AG, priority 2005, dated 2010).
